Experimental data reported in article PMC6154719 (Molecules : A Journal of Synthetic Chemistry and Natural …, 2017).
Values belong to the compound of their own block, whether it stands above or below them.

Legend:
certain CYPs = test system: certain CYPs; parameters: method as in PMID 21287405; conditions: read-out: IC50, inhibition of certain CYPs; cited from earlier work
CYP1A2 = target: T1, CYP1A2 (Homo sapiens, UniProt P05177); experiment: CYP1A2 (EROD activity, 7-ethoxyresorufin O-deethylation) in human liver microsomes; type: in vitro ADME; conditions: liver microsomes, probe 7-ethoxyresorufin; human, 5 µM inhibitor
T1 construct: Frozen liver (both rat and human) was thawed; from tissue; host or cells: human liver microsomal fraction
T1 sequence (P05177 1-516): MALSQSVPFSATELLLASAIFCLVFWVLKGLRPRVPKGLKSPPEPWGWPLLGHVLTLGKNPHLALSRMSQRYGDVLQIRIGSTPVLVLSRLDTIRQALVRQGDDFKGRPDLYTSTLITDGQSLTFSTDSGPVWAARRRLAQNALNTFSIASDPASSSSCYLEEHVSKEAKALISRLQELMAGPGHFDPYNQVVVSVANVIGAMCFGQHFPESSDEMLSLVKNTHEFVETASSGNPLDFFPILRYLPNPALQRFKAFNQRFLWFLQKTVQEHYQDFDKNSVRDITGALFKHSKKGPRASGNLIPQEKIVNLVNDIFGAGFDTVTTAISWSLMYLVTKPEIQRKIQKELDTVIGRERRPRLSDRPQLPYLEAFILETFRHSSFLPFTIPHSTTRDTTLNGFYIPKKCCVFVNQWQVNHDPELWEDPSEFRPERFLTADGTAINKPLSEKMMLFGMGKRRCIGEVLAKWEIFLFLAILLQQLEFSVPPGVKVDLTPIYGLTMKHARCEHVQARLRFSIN
Description: (§1) Enzyme activities were assayed in human and rat liver cytosolic and microsomal fractions. The enzyme assays (each performed in 4–8 replicates) were repeated three times (HPLC measurement of CYP activities was repeated only twice, Table 3). Inhibition studies were carried out by incubation of specific substrates in the presence of sesquiterpenes (in the range 0–100 µM).
(§2) Enzyme activities of individual CYP forms were measured according to established protocols. The following microsomal CYP activities were tested: CYP2A6, coumarin 7-hydroxylation; CYP2B6, 7-ethoxy-4-(trifluoromethyl)coumarin 7-deethylation, CYP2C9, diclofenac 4′-hydroxylation, CYP2C19 assay, S-mephenytoin 4′-hydroxylation, CYP2D6 on bufuralol 1′-hydroxylation, CYP2E1, chlorzoxazone 6-hydroxylation and CYP3A4, testosterone 6β-hydroxylation, and midazolam 1′-hydroxylation. Activities were measured using the Prominence HPLC system (Shimadzu, Kyoto, Japan), equipped with a LiChroCART 250-4 LiChrospher 100 RP-18 column or Chromolith®HighResolution RP-18 end-capped column (Merck, Darmstadt, Germany) and UV or fluorescence detection, according to the cited literature. Further incubation details are described either in the corresponding references, as well as in the papers from this laboratory e.g., [42, 43, 44]. CYP1A2, 7-ethoxyresorufin O-deethylation, and CYP3A4/2B6 (human), CYP2B1 (rat), benzyloxyresorufin O-debenzylation were measured using the microplate reader Tecan Infinite M200 (Tecan Group; Mannedorf, Switzerland).
Sesquiterpenes CNER, TNER and FAR, non-volatile liquids, were pipetted, and proper concentration was calculated according to density. All compounds were dissolved in DMSO. […] All experiments were performed in three replicates, if not stated otherwise.
(§3) CNER, TNER and FAR at a fixed concentration of 100 µM were screened for inhibition of cytosolic AKR1A1, AKR1C, CBR1, NQO1, SULT, and GST, and microsomal CYPs and UGT. The degree of inhibition caused by sesquiterpenes was compared with non-inhibited control reactions, which contained solvent without sesquiterpenes.
The concentration of sesquiterpenes required for 50% inhibition of enzyme activity, the IC50 value, was determined. […] The IC50 values for each sesquiterpene were determined by plotting sigmoidal dose response curves of specific enzyme activity vs. logarithm of sesquiterpene concentration using GraphPad Prism version 6.07 for Windows (GraphPad Software Inc., La Jolla, CA, USA).
(§4) The kinetic inactivation study of the CYP1A2 (EROD activity) and CYP2B/3A (BROD activity), both in rat and human, with TNER, was performed to find out the mechanism of enzyme inhibition by this sesquiterpene. Mechanism of EROD and BROD inhibition was tested at the final ethoxyresorufin or benzyloxyresorufin concentrations 0.5–5.0 µM. The concentration of TNER was 5.0 µM.
(§5) Experimental data were fitted to the Michaelis-Menten equation, basic kinetic parameters were determined using the program GraphPad Prism version 6.07 for Windows. The type of inhibition was estimated using a Lineweaver-Burk (double-reciprocal) plot.

CYP2B/3A = CYP2B/3A (BROD activity, benzyloxyresorufin O-debenzylation) in human liver microsomes; type: in vitro ADME; conditions: probe benzyloxyresorufin
Description: as §1, §2
Sesquiterpenes CNER, TNER and FAR, non-volatile liquids, were pipetted, and proper concentration was calculated according to density. All compounds were dissolved in DMSO. The final solvent concentration in the inhibition assays was 1%, which had no effect on the enzyme activity (data not shown). Non-enzymatic interference of sesquiterpenes with some compounds in the reaction mixtures (e.g., fluorescence enhancing or quenching) was considered and excluded. All experiments were performed in three replicates, if not stated otherwise.
as §3
The concentration of sesquiterpenes required for 50% inhibition of enzyme activity, the IC50 value, was determined. Their final concentrations in the reaction mixture were proposed to cover the entire inhibitory range of these compounds (1–100 µM). The IC50 values for each sesquiterpene were determined by plotting sigmoidal dose response curves of specific enzyme activity vs. logarithm of sesquiterpene concentration using GraphPad Prism version 6.07 for Windows (GraphPad Software Inc., La Jolla, CA, USA).
as §4, §5

Jurkat = test system: Jurkat; parameters: method as in earlier work; conditions: Jurkat cell line; cited from earlier work
HeLa = test system: HeLa; parameters: method as in earlier work; conditions: HeLa cell line; cited from earlier work
CYP3A4 = test system: CYP3A4; parameters: method as in PMID 25858508; conditions: human liver microsomes; cited from earlier work

SMILES: CC1=CCC[C@]2(C)O[C@H]2CC(=C(C)C)C(=O)C1 [(4S,5S)-(+)-germacrone-4,5-epoxide]
IC50 (certain CYPs): 1 µM

inhibition at 5 µM (CYP1A2): 92%
SMILES: O=c1cc(-c2ccccc2)oc2c1ccc1ccccc12 [ANF, α-naphthoflavone, reference compound]

inhibition at 5 µM (CYP2B/3A; liver microsomes, human, 5 µM inhibitor): 66% | IC50 (CYP2B/3A; human liver microsomes): 2.68 µM
SMILES: CC(=O)N1CCN(c2ccc(OCC3COC(Cn4ccnc4)(c4ccc(Cl)cc4Cl)O3)cc2)CC1 (stereo not shown) [KET, ketoconazole, reference compound]

SMILES: C=CC(C)(O)CC/C=C(\C)CCC=C(C)C (stereo not shown) [NER, Nerolidol]
concentration with strong anti-tumor effects (Jurkat): less than 5 µM | concentration with strong anti-tumor effects (HeLa): less than 5 µM

SMILES: C=C1C(=O)O[C@@H]2C[C@@]3(C)CCC[C@H](C)C3=C[C@H]12 [alantolactone]
IC50 (CYP3A4): 3.6 µM
